From US8691528B2, “Cell penetrating peptide” (Mitsubishi Tanabe Pharma Corporation, priority 2005, dated 2014)
“Also recorded” adds a separate entry of the source.

Legend:
Assay type in all cases: cell-based
Jurkat cells = assay: Confocal microscopic analysis of intracellular translocation of synthetic peptides in Jurkat cells
Experimental: (§1) Three kinds of cells were used for incorporating the peptides: CHO cells (ATCC NO. CCL-61), HeLa cells, and Jurkat cells. 10^4 CHO cells and HeLa cells and 10^5 Jurkat cells were separately inoculated to a 96-well plate, and cultured for 2 or 3 days. Subsequently, when the cells became confluent, each peptide solution was added to each type of cell, and the cells were incubated for 1 hour. After each type of cell was washed with PBS three times, 100 μL of 0.25% trypsin-1 mM EDTA solution was added, and trypsinization was performed at room temperature for 5 minutes. After 400 μL of PBS (10% FCS) was added to neutralize the trypsin, the cells were washed with 1 mL of HBSS (Hanks' Balanced Salt Solution/produced by Invitrogen) three times. After the washing, the cells were suspended in 50 μL of HBSS and analyzed using a confocal microscope. Measurements and analysis were performed using a confocal differential interference laser microscope system (Bio-Rad, Radience2100/Green He-Ne, 488 nm, microscope: Nikon, ECLIPSE E600).
In Jurkat cells as well, intracellular translocation experiments of synthetic peptides of modified PTD sequences were performed by confocal microscopic analysis.

CHO cells [1] = assay: Test of translocation of fluorescence-labeled peptides into CHO cells (FACS and confocal microscopic analysis); settings: for contribution of the alanine-substituted amino acid to the intracellular translocation: comprehensive alanine substitution on the basis of KSH1-1
Experimental: Each peptide solution, adjusted to 1 mM, was diluted with a medium to three levels, 100 μM, 50 μM, and 25 μM, and added to cells. Three kinds of cells were used: CHO cells, HeLa cells, and Jurkat cells. After each peptide solution was added, the cells were incubated for 1 hour. After the cells were washed with PBS three times, 100 μL of 0.25% trypsin-1 mM EDTA solution was added, and trypsinization was performed at room temperature for 5 minutes. After 400 μL of PBS (10% FCS) was added to stop the trypsinization, the cells were washed with 1 mL of HBSS three times. After the washing, the cells were suspended in 500 μL of PBS (10% FCS) and subjected to flowcytometry (hereinafter, FACS) analysis using FACS Calibur (Becton Dickinson).
Each peptide was synthesized, fluorescently labeled, purified and dissolved in the same manner as Example 1-2, a test of translocation into CHO cells was performed, and an evaluation was performed by confocal microscopic analysis and FACS. FACS analysis was performed in the same manner as Example 1-3. For the KSH1 peptide and modified PTD sequences, i.e., KSH1-1 to KSH1-9 peptides (SEQ ID NOS:1 to 9 in the sequence listing), fluorescence intensities determined by FACS analysis are shown in FIG. 6. The peptide addition concentrations were 50 μM, 25 μM, 12.5 μM and 6.5 μM.
To determine which amino acids are important to the intracellular translocation, comprehensive alanine substitution was performed on the basis of KSH1-1 to design KSH1-11 (SEQ ID NO:11 in the sequence listing) to KSH1-23 (SEQ ID NO:22 in the sequence listing) and KSH1-35 (SEQ ID NO:32 in the sequence listing) (FIG. 7). Each peptide was synthesized, fluorescently labeled, purified and dissolved in the same manner as Example 1-2, a test of translocation into CHO cells was performed, and an evaluation was performed by confocal microscopic analysis and FACS. FACS analysis was performed in the same manner as Example 1-3. For KSH1 and modified PTD sequences, i.e., KSH11-11 to 23 and KSH1-35, fluorescence intensities determined by FACS analysis are shown in FIG. 8. The peptide addition concentrations were 50 μM, 25 μM, 12.5 μM and 6.5 μM.
(§2) Each peptide was synthesized, fluorescently labeled, purified and dissolved in the same manner as Example 1-2, a test of translocation into CHO cells was performed, and an evaluation was performed by confocal microscopic analysis and FACS analysis. FACS analysis was performed in the same manner as Example 1-3. For KSH1 and modified PTD sequences, i.e., KSH11-24 to 1-26 and KSH1-28 to 1-30, fluorescence intensities determined by FACS analysis are shown in FIG. 10. The peptide addition concentrations were 50 μM, 25 μM, 12.5 μM and 6.5 μM.
as §2, with “KSH1-27, KSH1-33, KSH1-34” for “KSH11-24 to 1-26”, “KSH1-36,” for “KSH1-28 to 1-30,”, “12.” for “10.”
Each peptide was synthesized, fluorescently labeled, purified and dissolved in the same manner as Example 1-2, and an intracellular translocation test in CHO cells was performed by FACS analysis. Used for positive control were a PTD sequence derived from HIV TAT ([…] in the sequence listing) and the KSH1 peptide; used for negative control was a peptide sequence lacking intracellular transferability (SEQ ID NO:57 in the sequence listing).

HeLa cells = assay: Confocal microscopic analysis of intracellular translocation of synthetic peptides in HeLa cells; settings: confocal microscopic analysis
Experimental: as §1
In HeLa cells as with CHO cells, intracellular translocation experiments of synthetic peptides of modified PTD sequences were performed by confocal microscopic analysis.

CHO cells [2] = assay: Confocal microscopic analysis of translocation of fluorescence-labeled peptides into CHO cells; settings: Example 5-2; 50 μM to 12.5 μM (FIG. 19: 25 μM)
Experimental: as §1
Furthermore, CHO cells were inoculated to a slide chamber (produced by Nunc), 25 μM of each of the KSH1 peptide and positive control was added to the CHO cells, and the intracellular transferability thereof was determined using a confocal microscope.
For KSH2 to KSH10 (SEQ ID NOS:35 to 43 in the sequence listing), a test of translocation into CHO cells was performed in the same manner as Example 1-2, and confocal microscopic analysis was performed. Used for positive control were a PTD sequence derived from HIV TAT (SEQ ID NO:50 in the sequence listing) and the KSH1 peptide; used for negative control was a peptide sequence lacking intracellular transferability (SEQ ID NO:57 in the sequence listing).
In the confocal microscopic analysis, a background correction was performed using cells to which the negative control peptide (SEQ ID NO:57 in the sequence listing) had been added. Thereafter, the positive control PTD1 peptide (SEQ ID NO:50 in the sequence listing) was added, and fluorescence in the cells was examined.
Regarding novel PTD sequence, each peptide was analyzed in a series of 2-fold dilutions at three levels from 50 μM to 12.5 μM. […] The PTD candidate sequences identified here clearly retained the capability of intracellular translocation.

[3] = 50 μM, 25 μM, 12.5 μM and 6.5 μM

Substance	intracellular translocation in Jurkat cells as compared to that of SEQ ID NO:37 (Jurkat cells)	intracellular translocation compared with KSH1 (in words) (CHO cells [1]; [3])	intracellular translocation in HeLa cells (modified peptides with better translocation) (HeLa cells)	intracellular translocation profile compared with PTD1 (CHO cells [2])	other results
KSH1-8: tryptophan cluster form with lysine substituted with arginine (RLWMRWYSPWTRRYG; Designed peptide to act as PTD(Protein Transduction Domain))	better intracellular translocation	clearly accentuated intracellular translocation	better intracellular translocation		intracellular translocation (in words) (CHO cells [1]; at 25 μM or less): accentuated; intracellular translocation (in words) (CHO cells [1]; at 50 μM): decreased
KSH1-9: modified KSH1 with the number of tryptophans increased to 4 (RLWMRWYSPWTRRWG; Designed peptide to act as PTD(Protein Transduction Domain))	better intracellular translocation	the same tendency as KSH1-8; also recorded: clearly accentuated intracellular translocation	better intracellular translocation		
KSH1-12: alanine substitution form of KSH1-1 (RAWMRWYSPTTRRYG; Designed peptide to act as PTD(Protein Transduction Domain))	better intracellular translocation				contribution of the alanine-substituted amino acid to the intracellular translocation (CHO cells [1]): minor contribution
KSH1-14: alanine substitution form of KSH1-1 (RLWARWYSPTTRRYG; Designed peptide to act as PTD(Protein Transduction Domain))	better intracellular translocation				contribution of the alanine-substituted amino acid to the intracellular translocation (CHO cells [1]): minor contribution
KSH1-16: alanine substitution form of KSH1-1 (RLWMRAYSPTTRRYG; Designed peptide to act as PTD(Protein Transduction Domain))					intracellular translocation in HeLa cells compared with CHO cells (HeLa cells): slightly higher
KSH1-18: alanine substitution form of KSH1-1 (8th serine) (RLWMRWYAPTTRRYG; Designed peptide to act as PTD(Protein Transduction Domain))	better intracellular translocation	clearly accentuated intracellular translocation	better intracellular translocation		
KSH1-20: alanine substitution form of KSH1-1 (RLWMRWYSPATRRYG; Designed peptide to act as PTD(Protein Transduction Domain))	better intracellular translocation		better intracellular translocation		contribution of the alanine-substituted amino acid to the intracellular translocation (CHO cells [1]): minor contribution
KSH1-33: 13th arginine substituted with alanine and 10th threonine substituted with arginine (RLWMRWYSPRTRAYG; Designed peptide to act as PTD(Protein Transduction Domain))	better intracellular translocation	clearly accentuated intracellular translocation	better intracellular translocation		intracellular translocation compared with KSH1-1 (in words) (CHO cells [1]; [3]): nearly equivalent or more than KSH1-1
KSH3: novel PTD sequence from the 7-time-concentrated library of Jurkat cells (IPSRWKDQFWKRWHY; Designed peptide to act as PTD(Protein Transduction Domain))				better intracellular translocation profiles than PTD1	
KSH4: novel PTD sequence from the 7-time-concentrated library of Jurkat cells (KNAWKHSSCHHRHQI; Designed peptide to act as PTD(Protein Transduction Domain))				better intracellular translocation profiles than PTD1	
KSH6: novel PTD sequence from the 7-time-concentrated library of Jurkat cells (LITKQYRYPSRRRFN; Designed peptide to act as PTD(Protein Transduction Domain))				better intracellular translocation profiles than PTD1	
KSH7: novel PTD sequence from the 7-time-concentrated library of Jurkat cells (QQHLLIAINGYPRYN; Designed peptide to act as PTD(Protein Transduction Domain))				better intracellular translocation profiles than PTD1	
KSH10: novel PTD sequence from the 7-time-concentrated library of Jurkat cells (KRPTMRFRYTWNPMK; Designed peptide to act as PTD(Protein Transduction Domain))				better intracellular translocation profiles than PTD1	
